From publication PMC9124818 (Pharmacology Research & Perspectives, 2022)
Where “and” joins values, the source holds several entries; their conditions need not be identical. Identical values can stand only once.

Target: T1, OCT2 (Homo sapiens, UniProt O15244)
T1 construct: host or cells: HEK293
T1 sequence (O15244 1-555): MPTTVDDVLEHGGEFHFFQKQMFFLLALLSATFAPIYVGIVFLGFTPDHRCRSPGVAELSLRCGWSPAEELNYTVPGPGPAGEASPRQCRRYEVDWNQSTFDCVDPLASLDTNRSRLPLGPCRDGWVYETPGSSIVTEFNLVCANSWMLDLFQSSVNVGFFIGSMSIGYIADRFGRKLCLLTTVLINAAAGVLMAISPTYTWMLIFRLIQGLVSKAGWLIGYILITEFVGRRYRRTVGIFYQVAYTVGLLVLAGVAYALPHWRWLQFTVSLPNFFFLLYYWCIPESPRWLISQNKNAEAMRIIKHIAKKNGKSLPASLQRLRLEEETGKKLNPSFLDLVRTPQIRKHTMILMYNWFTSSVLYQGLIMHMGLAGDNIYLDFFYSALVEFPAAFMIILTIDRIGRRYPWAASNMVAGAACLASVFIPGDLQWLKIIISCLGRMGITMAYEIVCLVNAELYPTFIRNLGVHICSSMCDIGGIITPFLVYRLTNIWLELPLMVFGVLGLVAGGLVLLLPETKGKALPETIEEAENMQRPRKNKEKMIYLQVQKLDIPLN
Assay: Transporter inhibition, uptake of [14C]-metformin in HEK293 cells
Format: in vitro ADME
Details: probe [14C]-metformin 10 μM
Text: Cells were then washed, lysed with scintillation cocktail, and analyzed for the probe substrate with a MicroBeta scintillation counter (PerkinElmer, Hopkinton, MA). Transcellular transporter assay conditions are described in Supplemental Table 1. Calculation of IC50 values was based on bidirectional permeability of probe substrate with and without the inhibitor in MDCKII cells expressing BCRP and in Caco‐2 cells expressing P‐gp, and transporter‐dependent uptake of probe substrate in HEK293 cells expressing all other transporters (Supplemental Table 1).
The transporter-specific uptake of the probe substrate in cells was determined by subtracting the accumulation in the control cells from the accumulation in the transporter-expressing cells.

CC(N)Cc1cccc(C(F)(F)F)c1.Cl (stereo not shown) [nFFA, [1‐(3‐trifluoromethyl)phenyl]propan‐2‐amine hydrochloride] was tested, and the IC50 was 5.21 µM and 5.2 µM.
